The values below come from US8716334B2, “Substituted cyclohexylidene-ethylidene-octahydro-indene compounds” (Ben Gurion University of the Negev Research and Development …, priority 2008, dated 2014).

One series deals with MCF-7 cells. The experiment in a line: MTT viability assay in MCF-7 cells. The series is classed as cell-based, human. To be noted: MCF-7, 1 or 5 μmol/L, 3 to 6 days. The method, then: (§1) LNCaP and MCF-7 cells were plated in 96-well plates and treated with 1 or 5 μmol/L test substances for 3 to 6 days. Cell viability following treatments was assayed by MTT. All experiments were conducted at least twice, and weighted results from all experiments are shown. *p<0.005 of BGP-15 relative to vitamin D3, **p<0.001 of BGP-15 relative to vitamin D3 and to calcipotriene.
(§2) LNCaP and MCF-7 cell-lines are widely used models for human prostate and mammary carcinomas respectively. Following BGP-15 purification and structural elucidation (FIG. 12), the effect of calcipotriene and BGP-15 on the viability of both LNCaP and MCF-7 cells was tested in-vitro by using the MTT assay, and was compared with the effect obtained by vitamin D3 (calcitriol).

Series [1] in a line: Calcium metabolic model in rats. Particulars: 20 ng daily for six days. The series is classed as in vivo. As for the experimental part: The clinical use of vitamin D3 as an anti-cancer agent is limited by its toxicity and concerns the possible development of hypercalcemia or hypercalciuria in treated patients. The calcium levels in rat blood, and the total daily secretion of calcium in rat urine were evaluated following daily treatments of 20 ng of vitamin D3, calcipotriene or BGP-15 for six days as shown in FIG. 15.

The test system of the next series is HT-29, MCF-7, and LNCaP. The experiment in a line: Activity against cell lines of human origin. The format is cell-based.
Series [2] has as its system HT-29 human colon cancer cells. The experiment in a line: In vivo anti-tumor activity, HT-29 tumors in nude mice. To be noted: for tumor size relative to controls at 30 days after cancer cell injection / size of tumors versus vehicle-treated control mice: HT-29 sc in nude mice; for tumor size relative to controls at 30 days after cancer cell injection: 2 μg/kg ip; for size of tumors versus vehicle-treated control mice: 2 μg/kg ip from day 20; for weight loss or observable adverse effects: nude mice, 2 μg/kg ip three times per week. As for the experimental part:
In vivo anti-tumor activity of the novel derivatives of calcipotriol: Experiments were carried out to determine the ability of BGP-13 and BGP-15 to inhibit the growth of human tumor cells in vivo. […] Nude mice received a subcutaneous (sc) injection of HT-29 human colon cancer cells. At various time intervals after the administration of the tumor cells, the mice received three times per week intraperitoneal injections of BGP-13 and BGP-15 at a dose of 2 μg/kg. […] In one experiment 12 nude mice, which received a s.c. injection of HT-29, were divided into three groups. Starting from day 20 after tumor injection, 2 groups of the mice received ip injections of BGP-13 and BGP-15 respectively. […] At 30 days after cancer cell injection, the tumors in the treated group were half the size of the tumors in controls (FIG. 14).

A further series relates to LNCaP cells. The experiment in a line: MTT viability assay in LNCaP cells. The format is cell-based, human. To be noted: 1 or 5 μmol/L, 3 to 6 days. As for the experimental part:
as §1, §2
(In general: Tetrazolium assays rely on reduction of a dye to a coloured formazan, in cell work by metabolically active cells.)

The next series deals with p21^WAF1. The series is described as follows: Western blot of p21 expression in LNCaP cells. Particulars: 100 nM, 48 hours. The format is cell-based, human. As for the experimental part: Cells were incubated for 5 minutes at room temperature in 100 μl of 1% SDS lysis buffer. Samples were then collected into eppendorfs, incubated for 10 minutes at 100° C., and centrifuged at 14,000 rpm for 10 minutes. Supernatants were transferred into new tubes and pellets were discarded. Determination of protein concentration was conducted using the Bradford assay. […] protein of each sample was loaded on PVDF membranes and incubated with anti p21 antibody (Santa Cruz Biotechnology, Santa Cruz, Calif., U.S.A).
In general terms: Immunoblotting shows a protein as a band on a membrane.

Series [3] can be described thus: Stability in the external medium. The format is in vitro ADME. To be noted: relative to CPT. The method, then: (§3) External and internal fractions of HaCaT cultures (0.5×10^6, 1×10^6, 3×10^6, 5×10^6 and 9.7×10^6 cells) were analyzed by HPLC.
Another series has as its system HaCaT cells. The experiment in a line: MTT and NR viability assays for HaCaT cells (FIG. 7). The format is cell-based, human. On the set-up: dose or concentration left out as unconfirmed. To be noted: (for 24 hours). As for the experimental part:
FIG. 7 is a bar graph showing the results of a MTT and NR viability assays for HaCaT cells treated with 30 µM (for 24 hours) of 1α,25(OH)2 vitamin D3, calcipotriol (CPT), and BGP-13.
Viability of HaCaT cells in the presence of three vitamin D3 derivatives, 1α,25(OH)2 D3 (calcitriol), and BGP-013 was studied by MTT assay.

The subject of another series is HaCaT keratinocytes. The series is described as follows: Cellular entry into HaCaT keratinocytes by HPLC. The series is classed as in vitro ADME, human. To be noted: for entry into keratinocytes: HaCaT cultures, HPLC of external and internal fractions; for cell internalization normalized per cell: 0.5×10^6 to 9.7×10^6 cells, data not shown. The method, then:
as §3

For series [4], the system named is HaCaT immortalizes normal human skin keratinocytes. The series is described as follows: Neutral-Red viability assay in HaCaT cells. The series is classed as cell-based. The method, then:
(§4) Cell culture: The following human cell lines (1) LNCaP—human prostate carcinoma cell line (2) MCF-7—human breast carcinoma cell line, and (3) GA—human melanoma cell line (3) HaCaT—immortalizes normal human skin keratinocytes were tested. Cells were inoculated in RPMI 1640 (LNCaP and GA) or Dulbecco modified eagle medium-DMEM (MCF-7 and HaCaT) supplemented with 10% heat inactivated fetal calf serum, 200 μM L-glutamine, 10 units/ml Penicillin and 10 μgr/ml Streptomycin. The cells were kept at 37° C. in a 5% CO2 humidified atmosphere.
(§5) The direct effect of the compound compared to free calcipotriene and vitamin D3 in the viability and proliferation level of cultured cells was assessed in vitro using cultured Cells. The cells were inoculated in 0.2 ml fresh medium. After 24 at 37° C. in a 5% CO2 humidified atmosphere, the medium was replaced with a fresh medium containing 0.5% ethanol and 30, 5, 1 and 0.1 μM test substance. Medium containing 0.5% ethanol without test compounds was used for the control cells. Cell growth and proliferation was assayed by Neutral-Red assay (evaluated by measuring the absorbance of the dye following 3 hours incubation, in 540 nm) at the stated times.

Series [5] has as its system LNCaP human prostate carcinoma cell line. The series is described as follows: Neutral-Red viability assay in LNCaP cells. The series is classed as cell-based. To be noted: for antiproliferative effect (viability assay): 30 μM, 24 hours. As for the experimental part: as §4, §5
For series [6], the system named is MCF-7 human breast carcinoma cell line. The experiment in a line: Neutral-Red viability assay in MCF-7 cells. The format is cell-based. To be noted: MCF-7, 30 μM, 24 hours. As for the experimental part: as §4, §5
Series [7] can be described thus: Reaction with singlet oxygen (endoperoxide-naphthalene trapper). To be noted: room temperature, product detected by TLC, LC-MS. The text has this:
The trapper, endoperoxide-naphthalene, was converted into naphthalene and released exclusively singlet oxygen at room temperature (FIG. 11). Combining calcipotriol with the endoperoxide has created a new product that was first detected by TLC as BGP-13. LC-MS has confirmed that this indeed is the substance.

A short description of series [8]: CPT metabolite in rat skin. From the text:
LC/MS analysis has confirmed that the metabolite peak appeared at BGP-13's retention time was indeed this derivative (FIG. 10). […] The formation of reduced levels of this metabolite is probably due to the poor penetration of calcipotriol into the skin. Therefore, intracellular BGP-13 is an […] product of the internalized CPT with reactive oxygen species (ROS) such as singlet oxygen. This metabolic pathway of calcipotriol may have a role in scavenging ROS and reducing inflammatory processes in cells and tissue.

The structures appear in SMILES notation. “Also recorded” adds a separate entry of the source.

As to `C=C1/C(=C\C=C2/CCC[C@@]3(C)C2CC[C@@H]3C(C)/C=C/C(Cl)C2CC2)C[C@@H](O)C[C@@H]1O` (some centres unmarked) [Calci-Cl], the “cell survival (MTT)” value in the series with MCF-7 cells is “reduce prostate and breast cancer cells survival”. In series [1], the “hypercalcemia (calcium levels in rat blood)” value is “do not generate hypercalcemia” and the “hypercalciuria (total daily secretion of calcium in rat urine)” value is recorded as “do not generate hypercalcemia or hypercalciuria”. Besides, the “activity against cell lines of human origin” value in the series with HT-29, MCF-7, and LNCaP is “active at least against three cell lines”. Besides, in series [2], the “tumor size relative to controls at 30 days after cancer cell injection” value is listed as “half the size”, the “size of tumors versus vehicle-treated control mice” value is given as “significantly smaller” and the “weight loss or observable adverse effects” value was “did not cause either weight loss or any observable adverse effects”. Also, in the series with LNCaP cells, the “cell survival (MTT)” value was “reduce prostate and breast cancer cells survival”.

On to `C=C1/C(=C\C=C2/CCC[C@@]3(C)C2CC[C@@H]3C(C)C2C=C(C3CC3)OO2)C[C@@H](O)C[C@@H]1O` (some centres unmarked) [Compound II, Calci-dioxole], for which, in the series with p21^WAF1, the p21 expression result is listed as “not mediated through increased p21 expression”. The “stability in the medium” value in [3] is recorded as “significantly less stable in the medium relative to CPT”. Besides, in the series with HaCaT cells, the “inhibition of proliferation of keratinocytes (MTT assay)” value is “inhibited the proliferation of the keratinocytes at the same rate and extent as CPT or calcitriol”. Besides, in the series with HaCaT keratinocytes (HaCaT), the “intracellular permeation as fraction of the total quantity momentarily present in the cell culture” value is “enhanced intracellular permeation increased its stability by preventing degradation in the medium” and the “cell internalization normalized per cell” value is on record as “constant even at a high cell density”. The entry into keratinocytes result in the series on HaCaT keratinocytes is “approximately 60 % of the applied substance”. Further, in series [4] (HaCaT compared with cancer cell lines), the “selectivity for carcinogenic versus non-carcinogenic cells” value is on record as “more selective for carcinogenic cells; also recorded: might have a less potent effect on non-carcinogenic cells than on carcinogenic cells”. Moreover, in series [4] (HaCaT, 5 μM and 1 μM, 6 days), the “potency of treatment (viability assay)” value was “less potent than treatments with calcitriol and calcipotriol”. Further, the “activity against cell lines of human origin” value in the series with HT-29, MCF-7, and LNCaP is “active at least against three cell lines”. Besides, in series [2], the “tumor size relative to controls at 30 days after cancer cell injection” value is given as “half the size”, the “size of tumors versus vehicle-treated control mice” value is “significantly smaller” and the “weight loss or observable adverse effects” value was “did not cause either weight loss or any observable adverse effects”. Besides, the “mortality (viability assay)” value in series [5] (5 μM, 6 days) was “higher mortality than cells exposed to calcipotriol alone”. Further, the “antiproliferative effect (viability assay)” value (shortened to “antiproliferative effect”) in series [5] is “much more potent antiproliferative effect on the LNCaP and MCF-7 cancer cells as compared to HaCaT cells; also recorded: significantly high efficacy; also recorded: much more potent antiproliferative effect on LNCaP and MCF-7 cancer cells than on HaCaT cells; also recorded: much more potent antiproliferative effect on LNCaP cells than calcipotriol alone”. Also, the “antiproliferative effect” value in series [5] (listed as BGP-13) is given as “much more potent antiproliferative effect on LNCaP cells than calcipotriol alone”. In addition, in [6], the “antiproliferative effect” value was “much more potent antiproliferative effect on the LNCaP and MCF-7 cancer cells as compared to HaCaT cells; also recorded: much more potent antiproliferative effect on LNCaP and MCF-7 cancer cells than on HaCaT cells”.

On to `C=C1/C(=C\C=C2/CCC[C@]3(C)[C@@H]([C@H](C)/C=C/[C@@H](O)C4CC4)CC[C@@H]23)C[C@@H](O)C[C@@H]1O` [calcipotriol, reference compound], for which the “cell survival (MTT)” value in the series on MCF-7 cells is “reduce prostate and breast cancer cells survival”; with LNCaP cells, “reduce prostate and breast cancer cells survival”. In addition, in the series with p21^WAF1, the p21 expression entry is “increased p21 expression”. Further, in [1], the “hypercalcemia (calcium levels in rat blood)” value is on record as “do not generate hypercalcemia”. In [1], the “hypercalciuria (total daily secretion of calcium in rat urine)” value was “do not generate hypercalcemia or hypercalciuria”. In addition, the “action towards singlet oxygen” value in series [7] is on record as “antioxidant/quencher of singlet oxygen”. For the same molecule, the entry into keratinocytes entry in the series on HaCaT keratinocytes is “comparable”. In the series with HaCaT keratinocytes (HaCaT), the “cell internalization normalized per cell” value is reported as “constant even at a high cell density”. The “metabolite BGP-13 in rat skin” value in series [8] is “found at low levels”. Also, the “antiproliferative effect” value in [5] is “less efficacious; also recorded: relatively lower anticancer effect”.

On to `C=C1/C(=C\C=C2/CCC[C@]3(C)[C@@H]([C@H](C)CCCC(C)(C)O)CC[C@@H]23)C[C@@H](O)C[C@@H]1O` [calcitriol], for which the “cell survival (MTT)” value with MCF-7 cells was “reduce prostate and breast cancer cells survival”; with LNCaP cells, “reduce prostate and breast cancer cells survival”. In the series on p21^WAF1, the p21 expression result was “increased p21 expression”. Moreover, in series [5], the “antiproliferative effect” value is “less efficacious; also recorded: relatively lower anticancer effect”.
